From patent US9358232B2, “Methods for treating cancer using TOR kinase inhibitor combination therapy” (Signal Pharmaceuticals, LLC, priority 2013, dated 2016)
Entries after “also recorded” stand apart in the source; their conditions may differ.

Columns and labels:
WSU-DLCL2 xenograft = assay: DLBCL xenograft model; assay type: in vivo, SCID mice; settings: for decrease in tumor volume (TVR): Day 34, vs vehicle, Compound 1 10 mg/kg QD, Compound A 30 mg/kg QD, alone or combined (FIGS. 2-3); for tumor volume reduction (TVR): Day 35, end of 3-week dosing, vs vehicle control (FIG. 1)
Description: Severe combined immunodeficiency (SCID) mice were implanted with human DLBCL cell line (WSU-DLCL2) into the flank. Treatment of compounds started between Day 11 and Day 14 after cell inoculation. Randomized groups of mice (n=9 to 10/group) were treated with the single agents (Compound 1, Compound A or Compound AA) or the combination of Compound 1/Compound A, Compound A/Compound AA, or Compound 1/Compound AA. Compounds were administered orally on a once daily (Compound 1 and Compound A) or twice daily […] schedule for 21 days. The positive control consisted of CHOP therapy (combination of cyclophosphamide, doxorubicin, vincristine and prednisone). Compound 1 and Compound A were formulated in CMC-Tween (carboxymethylcellulose/Tween 80/deionized water). Compound AA was suspended in DSP (dimethylsulphoxide/solutol/phosphate buffered saline).
Initial studies were conducted in order to determine the antitumor activity of Compound 1 and to identify a dose level for the combination studies. In the WSU-DLCL2 xenograft model, Compound 1 inhibited tumor growth in a dose-dependent fashion. […] In a subsequent combination study, Compound 1 was dosed at 10 mg/kg, once daily (QD). Compound A and Compound AA were dosed at 30 mg/kg (QD) and 50 mg/kg (BID), respectively.

B-cell = settings: cited from earlier work
BTK = BTK (Homo sapiens, UniProt Q06187); settings: enzymatic and cellular assays; cited from earlier work
Sequence of BTK (Q06187 whole entry): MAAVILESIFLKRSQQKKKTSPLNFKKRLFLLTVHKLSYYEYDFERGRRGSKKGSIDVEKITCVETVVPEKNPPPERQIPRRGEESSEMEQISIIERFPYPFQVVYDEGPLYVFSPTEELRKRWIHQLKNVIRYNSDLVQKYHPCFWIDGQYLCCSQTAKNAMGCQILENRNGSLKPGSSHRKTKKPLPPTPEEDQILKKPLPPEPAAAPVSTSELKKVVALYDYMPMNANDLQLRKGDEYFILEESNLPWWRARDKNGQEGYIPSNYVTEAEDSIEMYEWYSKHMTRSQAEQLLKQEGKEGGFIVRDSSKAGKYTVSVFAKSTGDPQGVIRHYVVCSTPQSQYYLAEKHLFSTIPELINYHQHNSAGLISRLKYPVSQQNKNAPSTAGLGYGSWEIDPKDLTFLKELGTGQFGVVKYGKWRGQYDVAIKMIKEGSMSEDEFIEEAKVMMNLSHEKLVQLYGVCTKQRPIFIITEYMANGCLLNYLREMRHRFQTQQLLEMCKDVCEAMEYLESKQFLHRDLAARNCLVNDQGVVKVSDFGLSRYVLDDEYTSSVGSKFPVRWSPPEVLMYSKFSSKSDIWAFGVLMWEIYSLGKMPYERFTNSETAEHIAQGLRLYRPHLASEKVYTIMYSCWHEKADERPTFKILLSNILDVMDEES

[1] = combination study, Compound AA 50 mg/kg BID
[2] = combination study, single agents or in combination

| Compound | decrease in tumor volume (TVR) (WSU-DLCL2 xenograft; [1]) [%] | body weight loss (WSU-DLCL2 xenograft; [2]) | tumor volume reduction (TVR) (WSU-DLCL2 xenograft; 1 mg/kg oral once daily) [%] | tumor volume reduction (TVR) (WSU-DLCL2 xenograft; 3 mg/kg oral once daily) [%] | body weight loss (WSU-DLCL2 xenograft; initial dose study, 1, 3 and 10 mg/kg (FIG. 1)) | effect on B-cell proliferation and activation (B-cell) | inhibition of BTK (BTK) | antitumor activity as single agent (WSU-DLCL2 xenograft; [1]) |
| --- | --- | --- | --- | --- | --- | --- | --- | --- |
| Cc1nc2cccc(N)c2c(=O)n1C1CCC(=O)NC1=O (centres unmarked) [Compound A, 3-(5-Amino-2-methyl-4-oxoquinazolin-3(4H)-yl)-piperidine-2,6-dione] | 30 | No significant body weight loss |  |  |  |  |  |  |
| CO[C@H]1CC[C@H](N2C(=O)CNc3ncc(-c4ccc(C(C)(C)O)nc4)nc32)CC1 [Compound 1, 7-(6-(2-hydroxypropan-2-yl)pyridin-3-yl)-1-((1r,4r)-4-methoxycyclohexyl)-3,4-dihydropyrazino-[2,3-b]pyrazin-2(1H)-one] | 29 | No significant body weight loss | ~22 | ~28 | No significant body weight loss |  |  |  |
| C=CC(=O)Nc1cccc(Nc2nc(Nc3ccc(OCCOC)cc3)ncc2F)c1 [Compound AA, N-(3-(5-fluoro-2-(4-(2-methoxyethoxy)phenylamino)pyrimidin-4-ylamino)phenyl)acrylamide] |  | No significant body weight loss |  |  |  | inhibit B-cell proliferation and activation | covalent, irreversible inhibition of BTK | No significant antitumor activity; also recorded: inactive |
